The text below walks through data of patent publication US10576062B2, “Carbamoyloxymethyl triazole cyclohexyl acids as LPA antagonists” (Bristol-Myers Squibb Company, priority 2016, dated 2020).

Read-outs that look alike come from different tables or passages of the source.

The target of this test is T1, human LPA1 (Homo sapiens, UniProt Q92633).
T1 construct: expressed in transfected cells; host or cells: Chinese hamster ovary (CHO) cells
The test can be described thus: LPA1 functional antagonist assay (LPA-induced calcium flux). The format is cell-based. The following applies: read-out: hLPA1 IC50. The essentials: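 CHO cells overexpressing human LPA1, loaded with calcium dye 30 min at 37° C, were preincubated 20 min at room temperature with compound (0.08 nM–5 μM, 0.5% DMSO) in HBSS/20 mM HEPES/0.1% fatty acid-free BSA.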
(In general: Calcium flux is commonly read through the fluorescence of an indicator in the cells.)

Setting [1] is: CHO cells overexpressing human LPA1, inhibition of calcium flux induced by 10 nM LPA.

T1 sequence (Q92633 whole entry): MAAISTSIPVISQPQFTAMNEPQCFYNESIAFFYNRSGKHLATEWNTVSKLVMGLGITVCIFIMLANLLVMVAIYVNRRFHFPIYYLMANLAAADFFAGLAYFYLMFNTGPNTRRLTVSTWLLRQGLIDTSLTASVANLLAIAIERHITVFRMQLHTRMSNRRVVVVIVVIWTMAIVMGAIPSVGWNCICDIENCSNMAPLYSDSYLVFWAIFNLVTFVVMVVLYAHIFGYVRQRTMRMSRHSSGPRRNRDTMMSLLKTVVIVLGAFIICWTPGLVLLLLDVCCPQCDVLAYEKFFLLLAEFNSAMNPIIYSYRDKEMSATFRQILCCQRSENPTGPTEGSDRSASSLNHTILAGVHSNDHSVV

As for `CN(C(=O)OCc1c(-c2ccc(O[C@H]3CCC[C@H](C(=O)O)C3)cn2)nnn1C)C(C1CC1)C1CC1` [Example 80, (1S,3S)-3-((6-(5-((((Dicyclopropylmethyl)(methyl)carbamoyl)oxy)methyl)-1-methyl-1H-1,2,3-triazol-4-yl)pyridin-3-yl)oxy)cyclohexanecarboxylic acid], the IC50 (in general, the concentration that inhibits the measured activity by half) is 60 nM.

As for `CCCN(C)C(=O)OCc1c(-c2ccc(O[C@H]3CCC[C@H](C(=O)O)C3)c(C(F)(F)F)n2)nnn1C` [Example 274, (1S,3S)-3-((6-(1-methyl-5-(((methyl(propyl)carbamoyl)oxy)methyl)-1H-1,2,3-triazol-4-yl)-2-(trifluoromethyl)pyridin-3-yl)oxy)cyclohexane-1-carboxylic acid], the IC50 under setting [1] is 28 nM.

As to `Cc1nc(-c2nnn(C)c2COC(=O)N(C)C2CC(F)(F)C2)ccc1O[C@H]1CCC[C@H](C(=O)O)C1` [Example 139, (1S,3S)-3-((6-(5-((((3,3-difluorocyclobutyl)(methyl)carbamoyl)oxy)methyl)-1-methyl-1H-1,2,3-triazol-4-yl)-2-methylpyridin-3-yl)oxy)cyclohexane-1-carboxylic acid], the IC50 stood at 70 nM.

On to `CC(C1CCC1)N(C)C(=O)OCc1c(-c2ccc(O[C@H]3CCC[C@H](C(=O)O)C3)cc2)nnn1C` (single isomer, unassigned) [Example 49], for which the IC50 worked out at 14 nM.

For the molecule `Cc1nc(-c2nnn(C)c2COC(=O)N(C)CC(C)(C)C)ccc1O[C@H]1CCC[C@H](C(=O)O)C1` [Example 264, (1S,3S)-3-((2-methyl-6-(1-methyl-5-(((methyl(neopentyl)carbamoyl)oxy)methyl)-1H-1,2,3-triazol-4-yl)pyridin-3-yl)oxy)cyclohexane-1-carboxylic acid], the IC50 under setting [1] was determined as 76 nM.

For the molecule `CCCCN(C)C(=O)OCc1c(-c2ccc(O[C@H]3CCC[C@H](C(=O)O)C3)cc2)nnn1C` (racemic) [Example 64, (rac)-trans-3-(4-(5-(((butyl(methyl)carbamoyl)oxy)methyl)-1-methyl-1H-1,2,3-triazol-4-yl)phenoxy)cyclohexane-1-carboxylic acid], the IC50 came to 32 nM.

On to `CN(CC1CC1)C(=O)OCc1c(-c2ccc(O[C@H]3CCC[C@H](C(=O)O)C3)cc2)nnn1C` (racemic) [Example 61, (rac)-trans-3-(4-(5-((((cyclopropylmethyl)(methyl)carbamoyl)oxy)methyl)-1-methyl-1H-1,2,3-triazol-4-yl)phenoxy)cyclohexane-1-carboxylic acid], for which the IC50 is 273 nM.

Turning to `Cc1nc(-c2nnn(C)c2COC(=O)N(C)CC(C)(C)C)cnc1O[C@H]1CCC[C@H](C(=O)O)C1` [Example 231, (1S,3S)-3-((3-methyl-5-(1-methyl-5-(((methyl(neopentyl)carbamoyl)oxy)methyl)-1H-1,2,3-triazol-4-yl)pyrazin-2-yl)oxy)cyclohexane-1-carboxylic acid], the IC50 under setting [1] is 88 nM.

As to `Cc1nc(-c2nnn(C)c2COC(=O)N2CCC3CCCC32)ccc1O[C@H]1CCC[C@H](C(=O)O)C1` (stereo partly drawn) [Example 149, (1S,3S)-3-((2-methyl-6-(1-methyl-5-(((octahydrocyclopenta[b]pyrrole-1-carbonyl)oxy)methyl)-1H-1,2,3-triazol-4-yl)pyridin-3-yl)oxy)cyclohexane-1-carboxylic acid], the IC50 turned out to be 180 nM.

As for `CCCN(C)C(=O)OCc1c(-c2ccc(O[C@H]3CCC[C@H](C(=O)O)C3)cc2)nnn1C` (racemic) [Example 59, (rac)-trans-3-(4-(1-methyl-5-(((methyl(propyl)carbamoyl)oxy)methyl)-1H-1,2,3-triazol-4-yl)phenoxy)cyclohexane-1-carboxylic acid], the IC50 is 1880 nM.

Regarding `Cc1nc(-c2nnn(C)c2CCOC(=O)NCC2CCC2)ccc1O[C@H]1CCC[C@H](C(=O)O)C1` [Example 248, (1S,3S)-3-((6-(5-(2-(((Cyclobutyl-methyl)carbamoyl)oxy)ethyl)-1-methyl-1H-1,2,3-triazol-4-yl)-2-methylpyridin-3-yl)oxy)cyclohexane-1-carboxylic acid], under setting [1], the IC50 came to 144 nM.

On to `Cc1nc(-c2nnn(C)c2COC(=O)N(C)CCCCF)ccc1O[C@H]1CCC[C@H](C(=O)O)C1` [Example 192, (1S,3S)-3-((6-(5-((((4-fluorobutyl)(methyl)carbamoyl)oxy)methyl)-1-methyl-1H-1,2,3-triazol-4-yl)-2-methylpyridin-3-yl)oxy)cyclohexane-1-carboxylic acid], for which, where the note is “human LPA1”, the IC50 was determined as 36 nM.

For `Cc1nc(-c2nnn(C)c2COC(=O)N(C)C2CC3(CC3)C2)ccc1O[C@H]1CCC[C@H](C(=O)O)C1` [Example 179, (1S,3S)-3-((2-methyl-6-(1-methyl-5-(((methyl(spiro[2.3]hexan-5-yl)carbamoyl)oxy)methyl)-1H-1,2,3-triazol-4-yl)pyridin-3-yl)oxy)cyclohexane-1-carboxylic acid], the IC50 (human LPA1) came to 14 nM.

On to `CCc1nc(-c2nnn(C)c2COC(=O)N(C)CC)ccc1O[C@H]1CCC[C@H](C(=O)O)C1` [Example 202, (1S,3S)-3-((2-ethyl-6-(5-(((ethyl(methyl)carbamoyl)oxy)methyl)-1-methyl-1H-1,2,3-triazol-4-yl)pyridin-3-yl)oxy)cyclohexane-1-carboxylic acid], for which the IC50 under setting [1] turned out to be 160 nM.

`Cc1nc(-c2nnn(C)c2COC(=O)N(C)CC2CC2C)ccc1O[C@H]1CCC[C@H](C(=O)O)C1` (stereo partly drawn) [Example 262, (1S,3S)-3-((2-methyl-6-(1-methyl-5-(((methyl((2-methylcyclopropyl)methyl)carbamoyl)oxy)methyl)-1H-1,2,3-triazol-4-yl)pyridin-3-yl)oxy)cyclohexane-1-carboxylic acid]: under setting [1], the IC50 was 29 nM.

Regarding `Cc1nc(-c2nnn(C)c2COC(=O)N(C)C[C@H]2C[C@@H]2C)ccc1O[C@H]1CCCC(C(=O)O)C1` (stereo in doubt) [Example 258, (1R,3 S)-3-((2-methyl-6-(1-methyl-5-(((methyl(((1S,2S)-2-methylcyclopropyl)methyl)carbamoyl)oxy)methyl)-1H-1,2,3-triazol-4-yl)pyridin-3-yl)oxy)cyclohexane-1-carboxylic Acid], the IC50 under setting [1] was found to be 19 nM.

Take `C[C@@H](C1CC1)N(C)C(=O)OCc1c(-c2ccc(O[C@H]3CCC[C@H](C(=O)O)C3)cc2)nnn1C` [Example 52, (1S,3S)-3-(4-(5-(((((S)-1-cyclopropylethyl)(methyl)carbamoyl)oxy)methyl)-1-methyl-1H-1,2,3-triazol-4-yl)phenoxy)cyclohexane-1-carboxylic acid]: the IC50 turned out to be 197 nM.

For `CN(C(=O)OCc1c(-c2ccc(O[C@H]3CCC[C@H](C(=O)NS(C)(=O)=O)C3)cc2)nnn1C)C1CCCC1` [Example 7, (1-Methyl-4-(4-(((1S,3S)-3-((methylsulfonyl)carbamoyl)cyclohexyl)oxy)phenyl)-1H-1,2,3-triazol-5-yl)methyl cyclopentyl(methyl)carbamate], the IC50 under setting [1] was 3750 nM.

`CN(CC1CCC1)C(=O)OCc1c(-c2ccc(O[C@H]3CCC[C@H](C(=O)O)C3)c(CF)n2)nnn1C` [Example 266, (1S,3 S)-3-((6-(5-((((cyclobutylmethyl)(methyl)carbamoyl)oxy)methyl)-1-methyl-1H-1,2,3-triazol-4-yl)-2-(fluoromethyl)pyridin-3-yl)oxy)cyclohexane-1-carboxylic Acid]: the IC50 under setting [1] worked out at 27 nM.

As for `Cc1nc(-c2nnn(C)c2COC(=O)N(C)Cc2ccnn2C)ccc1O[C@H]1CCC[C@H](C(=O)O)C1` [Example 124, (1S,3S)-3-((2-methyl-6-(1-methyl-5-(((methyl((1-methyl-1H-pyrazol-5-yl)methyl)carbamoyl)oxy)methyl)-1H-1,2,3-triazol-4-yl)pyridin-3-yl)oxy)cyclohexane-1-carboxylic acid], the IC50 came out at 982 nM.

Take `Cc1nc(-c2nnn(C)c2COC(=O)N2CC(C)C2)ccc1O[C@H]1CCC[C@H](C(=O)O)C1` [Example 156, (1S,3S)-3-((2-methyl-6-(1-methyl-5-(((3-methylazetidine-1-carbonyl)oxy)methyl)-1H-1,2,3-triazol-4-yl)pyridin-3-yl)oxy)cyclohexane-1-carboxylic acid]: the IC50 amounted to 231 nM.

For `CC(C)CCN(C)C(=O)OCc1c(-c2ccc(O[C@H]3CCC[C@H](C(=O)O)C3)c(F)c2)nnn1C` [Example 47, (1S,3S)-3-(2-fluoro-4-(5-(((isopentyl(methyl)carbamoyl)oxy)methyl)-1-methyl-1H-1,2,3-triazol-4-yl)phenoxy)cyclohexane-1-carboxylic acid], the IC50 was determined as 3 nM.

As for `C[C@H]1C[C@@H]1CN(C)C(=O)OCc1c(-c2ccc(O[C@H]3CCC[C@H](C(=O)O)C3)cn2)nnn1C` [Example 252, (1S,3S)-3-((6-(1-methyl-5-(((methyl(((1S,2S)-2-methylcyclopropyl)methyl)carbamoyl)oxy)methyl)-1H-1,2,3-triazol-4-yl)pyridin-3-yl)oxy)cyclohexane-1-carboxylic acid], the IC50 under setting [1] was 29 nM.

`CCCC1(N(C)C(=O)OCc2c(-c3ccc(O[C@H]4CCC[C@H](C(=O)O)C4)cn3)nnn2C)CC1` [Example 81, (1S,3S)-3-((6-(1-methyl-5-(((methyl(1-propylcyclopropyl)carbamoyl)oxy)methyl)-1H-1,2,3-triazol-4-yl)pyridin-3-yl)oxy)cyclohexane-1-carboxylic acid]: the IC50 is 61 nM.

Consider `CC(OC(=O)N(C)CC1CCC1)c1c(-c2ccc(O[C@H]3CCC[C@H](C(=O)O)C3)cc2)nnn1C` (mixture of isomers) [Example 12, (1S,3S)-3-(4-(5-(1-(((cyclobutylmethyl)(methyl)carbamoyl)oxy)ethyl)-1-methyl-1H-1,2,3-triazol-4-yl)phenoxy)cyclohexane-1-carboxylic Acid], for which the IC50 under setting [1] was 384 nM.
